Laboratory results reported in PubChem BioAssay AID2060508 (Molecular Pharmacology Branch, DTP, NCI, 2025).
“And” between values parts separate entries of the source, which are not always exact repeats. Identical values can stand only once. Values belong to the compound of their own block, whether it stands above or below them.

System: 454973-116-R2-J3-PDC spheroids, viability, % test/control
Assay: Anticancer human tumor 454973-116-R2-J3-PDC patient-derived pancreatic carcinoma cell line growth inhibition [GQUAD]
Details: spheroids with HUVEC and MSC; for viability, T/C: stronger effect = lower value
Excerpt: DNA G-quadruplex Stabilizer Agents in Combinations in Complex Spheroids
A high-throughput screen of multi-cell type tumor spheroids was designed to identify active combinations of DNA G-quadruplex stabilizer agents and targeted small molecules. Complex spheroids include a stromal component modeled by human endothelial cells (HUVEC) and fibroblasts modeled by human mesenchymal stem cells (MSCs). The concentration ranges selected for each drug and investigational agent were based upon clinically achievable concentrations if the clinical Cmax of the agent was known.
Compounds. The drugs and investigational agents: pidnarulex (CX-5461; NSC782164), APTO-253 (NSC789042), BRACO-19 (NSC847499), peposertib (NSC802822), ceralasertib (NSC780249), elimusertib (NSC800525), camonsertib (NSC841442), AZD-1390 (NSC803789), olaparib (NSC753686), talazoparib (NSC767125), ART-558 (NSC835418), sotorasib (NSC818433), MRTX-1133 (NSC836407), SN-38 (NSC673596), topotecan (NSC609699), etoposide (NSC141540), doxorubicin (NSC123127), gemcitabine (NSC613327), 5-fluorouracil (NSC19893), paclitaxel (NSC125973), vemurafenib (NSC761431), panobinostat (NSC761190), R-306465 (JNJ-16241199; NSC773264), adavosertib (NSC754352), TP-3654 (NSC805149), carboplatin (NSC241240), KSQ-4279 (NSC840948), and staurosporine (NSC755774) were obtained from the National Cancer Institute (NCI) Developmental Therapeutics Program Chemical Repository (34). The FDA-approved anticancer drug set is available from the NCI Developmental Therapeutics Program. […] The stock solutions were prepared in dimethyl sulfoxide (DMSO, Sigma-Aldrich, St. Louis, MO, cat. D2650) at 800-fold the tested concentration and stored at -70 degrees C prior to their use. All drugs and investigational agents were tested over a range starting from a high concentration at or near the clinical Cmax and decreasing in half-log increments. If the clinical Cmax for an agent had not been determined, the highest concentration tested was 10 microM.
2.3 Cell Culture. All cells were maintained in an incubator at 37 degrees C and 5% CO2 with 95% humidity. The PDC lines were cultured according to standard operating procedures established by the NCI PDMR. All PDCs were thawed and cultured in Matrigel-coated flasks prepared with a working solution of 1X Ham's F-12 nutrient mix, without supplementation (Invitrogen, cat. 11765054), 100 U/mL penicillin-streptomycin (Invitrogen, cat. 15140122), and 2.5% Matrigel (Corning Inc., cat. 354248) for the first three passages. The 857933-349-R-J2-PDC line was cultured in 6C/Colon 1B media, which includes advanced DMEM/F-12 (Thermo Fisher Scientific, cat. 12634028), 10 mM HEPES (Thermo Fisher Scientific, cat. 15630080), 1X GlutaMAX supplement (Thermo Fisher Scientific, cat. 35050061), 0.1 mg/mL primocin (InvivoGen, cat. ant-pm-2), 10% defined fetal bovine serum, heat inactivated (HyClone Laboratories Inc., cat. SH30070.03HI), 50% L-WRN conditioned media (ATCC, cat. CRL-3276), 1.25 mM N-Acetyl-L-cysteine (Sigma-Aldrich, cat. A9165), 10 mM nicotinamide (Sigma-Aldrich, cat. N0636), 1X B-27 supplement (Thermo Fisher Scientific, cat. 17504044), 1X N-2 supplement (Thermo Fisher Scientific, cat. 17502048), 10 microM Y-27632 dihydrochloride (Tocris Bioscience, cat. 1254), and 50 ng/mL human EGF recombinant protein (Thermo Fisher Scientific, cat. PHG0311). The 485176-168-R4-J1-PDC line was cultured in Panc media, which includes all 6C/Colon 1B media components plus 100 ng/mL human FGF-10 (Thermo Fisher Scientific, cat. 100-26), 500 nM SB-431542 (Selleckchem, cat. S1067), and gastrin (Tocris, cat. 3006).
[…]
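Further: spheroids exposed to compounds for seven days.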

IC50 (compound alone, run of 04/16/2024): > 10000 nM
IC50 (compound alone, run of 04/22/2024): > 10000 nM
Compound: Cc1[nH]c2ccc(F)cc2c1-c1nc2c3cccnc3c3ncccc3c2[nH]1
viability, T/C (compound 0.0316 µM): 106% [middle of 12 runs]
viability, T/C (compound 0.1 µM): 110% [middle of 12 runs]
viability, T/C (compound 0.316 µM): 106% [middle of 12 runs]
viability, T/C (compound 1 µM): 105% [middle of 12 runs]
viability, T/C (compound 3.16 µM): 100% [middle of 12 runs]
viability, T/C (compound 10 µM): 88.5% [middle of 12 runs]

IC50 (curve of compound): 151 nM and 225 nM and 162 nM
Compound: COc1cccc2c1C(=O)c1c(O)c3c(c(O)c1C2=O)CC(O)(C(=O)CO)CC3OC1CC(N)C(O)C(C)O1 (centres undefined)
viability, T/C (compound 0.0316 µM): 96.8% and 101% and 90.3%
viability, T/C (compound 0.1 µM): 63.4% and 69.4% and 65.3%
viability, T/C (compound 0.316 µM): 24.1% and 34.5% and 26.2%
viability, T/C (compound 1 µM): 25.2% and 30.2% and 26.5%
viability, T/C (compound 3.16 µM): 11.2% and 23.5% and 13%
viability, T/C (compound 10 µM): 0.95% and 0.93% and 0.63%

IC50 (curve of compound): > 316 nM
Compound: Cn1ncnc1[C@H]1c2n[nH]c(=O)c3cc(F)cc(c23)N[C@@H]1c1ccc(F)cc1
viability, T/C (compound 0.000999 µM): 105% and 108% and 102%
viability, T/C (compound 0.00316 µM): 95.6% and 90.5% and 93.4%
viability, T/C (compound 0.00999 µM): 93.2% and 92.4% and 94.9%
viability, T/C (compound 0.0316 µM): 90.5% and 84.5% and 95%
viability, T/C (compound 0.0999 µM): 87.5% and 93.9% and 86.8%
viability, T/C (compound 0.316 µM): 82.2% and 77.3% and 78.9%

IC50 (curve of first compound, second compound 0.0316 µM): 198 nM
IC50 (curve of first compound, second compound 0.1 µM): 163 nM
IC50 (curve of first compound, second compound 0.316 µM): 144 nM
IC50 (curve of first compound, second compound 1 µM): 140 nM
IC50 (curve of first compound, second compound 3.16 µM): 130 nM
IC50 (curve of first compound, second compound 10 µM): < 31.6 nM
Compound: O=C(NO)c1cnc(N2CCN(S(=O)(=O)c3ccc4ccccc4c3)CC2)nc1 + Cc1cnc(CNC(=O)c2c(=O)c3ccc(N4CCCN(C)CC4)nc3n3c2sc2ccccc23)cn1
viability, T/C (second compound 0.0316 µM, first compound 0.0316 µM): 105%
viability, T/C (second compound 0.0316 µM, first compound 0.1 µM): 81.9%
viability, T/C (second compound 0.0316 µM, first compound 0.316 µM): 28.5%
viability, T/C (second compound 0.0316 µM, first compound 1 µM): 1.33%
viability, T/C (second compound 0.0316 µM, first compound 3.16 µM): 0.09%
viability, T/C (second compound 0.0316 µM, first compound 10 µM): 0.11%
viability, T/C (second compound 0.1 µM, first compound 0.0316 µM): 87.1%
viability, T/C (second compound 0.1 µM, first compound 0.1 µM): 68.6%
viability, T/C (second compound 0.1 µM, first compound 0.316 µM): 24.8%
viability, T/C (second compound 0.1 µM, first compound 1 µM): 1.02%
viability, T/C (second compound 0.1 µM, first compound 3.16 µM): 0.59%
viability, T/C (second compound 0.1 µM, first compound 10 µM): 0.1%
viability, T/C (second compound 0.316 µM, first compound 0.0316 µM): 67.4%
viability, T/C (second compound 0.316 µM, first compound 0.1 µM): 61.9%
viability, T/C (second compound 0.316 µM, first compound 0.316 µM): 23.6%
viability, T/C (second compound 0.316 µM, first compound 1 µM): 0.34%
viability, T/C (second compound 0.316 µM, first compound 3.16 µM): 0.11%
viability, T/C (second compound 0.316 µM, first compound 10 µM): 0.12%
viability, T/C (second compound 1 µM, first compound 0.0316 µM): 59.5%
viability, T/C (second compound 1 µM, first compound 0.1 µM): 64.1%
viability, T/C (second compound 1 µM, first compound 0.316 µM): 21.8%
viability, T/C (second compound 1 µM, first compound 1 µM): 0.41%
viability, T/C (second compound 1 µM, first compound 3.16 µM): 0.09%
viability, T/C (second compound 1 µM, first compound 10 µM): 0.13%
viability, T/C (second compound 3.16 µM, first compound 0.0316 µM): 67.9%
viability, T/C (second compound 3.16 µM, first compound 0.1 µM): 60.9%
viability, T/C (second compound 3.16 µM, first compound 0.316 µM): 13.3%
viability, T/C (second compound 3.16 µM, first compound 1 µM): 0.48%
viability, T/C (second compound 3.16 µM, first compound 3.16 µM): 0.95%
viability, T/C (second compound 3.16 µM, first compound 10 µM): 0.53%
viability, T/C (second compound 10 µM, first compound 0.0316 µM): 0.19%
viability, T/C (second compound 10 µM, first compound 0.1 µM): 21.1%
viability, T/C (second compound 10 µM, first compound 0.316 µM): 0.26%
viability, T/C (second compound 10 µM, first compound 1 µM): 0.2%
viability, T/C (second compound 10 µM, first compound 3.16 µM): 0.19%
viability, T/C (second compound 10 µM, first compound 10 µM): 0.19%
